Patent US20250051375A1, “ANTI-HIV COMPOUNDS” (Gilead Sciences, Inc., priority 2023, published 2025)
Converted amounts (≈) assume the structure as drawn.

Columns and labels:
[1] = biological target: bovine intestinal alkaline phosphatase (Bos taurus (Bovine), UniProt P19111); assay: BiALP: conversion by bovine intestinal alkaline phosphatase; format: in vitro ADME; settings: 2 μM substrate, 100 ng/mL iALP, Tris pH 7.8, 37° C., 60 minutes
Method in brief: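 Compounds at 2 μM final were incubated 60 min at 37° C in 0.1 M Tris-HCl pH 7.8 with 1 mM MgCl2 and 1 mM ZnCl2, with or without 100 ng/mL iALP (0.01 units/mL). Samples were quenched with acetonitrile/formic acid containing labetalol. Conversion was quantified by LC-MS peak area ratios against a 2 μM product standard.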

[2] = test system: HIV-1 IIIB strain; assay: MT-4 HIV Wild Type Virus Infection Assay (IIIB Virus); format: cell-based; settings: Human immunodeficiency virus 1, IIIB, MT4, 120 h, MT-4 cells acutely infected with HIV-1 IIIB, 5 day incubation, Cell-titer glo
Method in brief: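 MT-4 cells at 2×10^6 cells/ml in RPMI/10% FBS were acutely infected with HIV-1 IIIB for 1 h at 37° C, diluted 25× and added to serially diluted compounds. After 5 days at 37° C, viability read by CellTiter-Glo luminescence; EC50 from dose-response curves.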

[3] = Solubility in FaSSIF; settings: 23 °C, pH 6.5, fassif, thermodynamic from solid
Method in brief: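 Concentration measured by HPLC-UV after solid compound was dosed at 5 mg/mL into pH 6.5 fasted-state simulated intestinal fluid containing taurocholate and lecithin (4:1 molar) and vortexed.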

[4] = Intestinal S9 Assay (dog GI S9); format: in vitro ADME; settings: 1.0 mg/mL S9 protein; for half-life at 2 μM: dog, TRIS pH 7.4, read-out: Dog GI S9 T½
Method in brief: (§1)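 Pooled dog or human intestinal S9 at 1.0 mg/mL protein in TRIS buffer pH 7.4 with ZnCl2 and MgCl2; compound at 2 μM, sampled 0–120 min and quenched. Remaining parent by LC-MS peak area ratio; half-life from first-order exponential decline fit.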

[5] = Intestinal S9 Assay (human GI S9); format: in vitro ADME; settings: 1.0 mg/mL S9 protein; for half-life at 2 μM: human, TRIS pH 7.4, read-out: Human GI S9 T½
Method in brief: as §1

[6] = PBS Stability Assay; format: physicochemical; settings: buffer, pH 7.4, 2 μM, phosphate buffered saline pH 7.4; read-out: PBS T½
Method in brief: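 Test compound at 2 μM final was incubated in PBS, pH 7.4, and sampled at 0, 10, 20, 30, 60 and 120 min into acetonitrile/1% formic acid quench with labetalol internal standard. Remaining compound was quantified by LC-MS peak-area ratio, and half-life came from a first-order exponential fit.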

Chain of bovine intestinal alkaline phosphatase (P19111 20-506): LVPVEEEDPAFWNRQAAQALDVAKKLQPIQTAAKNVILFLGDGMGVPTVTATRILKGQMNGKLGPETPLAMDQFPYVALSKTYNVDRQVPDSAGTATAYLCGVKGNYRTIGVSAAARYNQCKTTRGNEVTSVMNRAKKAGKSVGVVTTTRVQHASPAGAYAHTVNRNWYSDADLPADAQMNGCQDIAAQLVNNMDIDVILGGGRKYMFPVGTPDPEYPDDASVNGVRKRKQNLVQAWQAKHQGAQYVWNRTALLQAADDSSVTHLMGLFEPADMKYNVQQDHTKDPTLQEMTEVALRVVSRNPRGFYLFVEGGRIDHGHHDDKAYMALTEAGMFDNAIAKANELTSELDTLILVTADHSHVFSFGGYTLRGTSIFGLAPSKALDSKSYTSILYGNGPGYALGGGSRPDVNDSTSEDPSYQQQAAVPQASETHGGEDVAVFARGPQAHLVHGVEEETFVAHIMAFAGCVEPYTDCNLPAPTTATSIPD

Compound: COC(=O)N[C@H](C(=O)N[C@@H](Cc1ccc(C#Cc2cnc(N3CC4CCC(C3)N4C3COC3)nc2)cc1)[C@H](CN(Cc1c(F)cc(-c2ccn(C(F)F)n2)cc1F)NC(=O)[C@@H](NC(=O)OC)C(C)(C)C(F)(F)F)OC(=O)CC(C)(C)c1c(CC(=O)N[C@@H](CCS(=O)(=O)O)C(=O)O)cc(C)cc1OP(=O)(O)O)C(C)(C)C(F)(F)F [Example 33]
- [Compound] [1]: 1487.1 nM
- EC50 [2]: 65.7 nM
- solubility at 2 h [3]: 4240 µg/mL (≈ 2570 µM)
- half-life at 2 μM [4]: 1.51 h
- half-life at 2 μM [5]: 3.72 h
- half-life at 2 μM [6]: 5.71 h

Compound: COC(=O)N[C@H](C(=O)N[C@@H](Cc1ccc(C#Cc2cnc(N3CC4CCC(C3)N4C3COC3)nc2)cc1)[C@H](CN(Cc1c(F)cc(-c2ccn(C(F)F)n2)cc1F)NC(=O)[C@@H](NC(=O)OC)C(C)(C)C(F)(F)F)OC(=O)CC(C)(C)c1c(CC(=O)NC(CCP(=O)(O)O)C(=O)O)cc(C)cc1OP(=O)(O)O)C(C)(C)C(F)(F)F (stereo partly drawn) [Example 35]
- [Compound] [1]: 2145.2 nM
- EC50 [2]: 65.7 nM
- solubility at 2 h [3]: 3560 µg/mL (≈ 2160 µM)
- half-life at 2 μM [4]: 0.235 h
- half-life at 2 μM [5]: 3.21 h
- half-life at 2 μM [6]: 3.27 h

Compound: COC(=O)N[C@H](C(=O)N[C@@H](Cc1ccc(C#Cc2cnc(N3CC4CCC(C3)N4C3COC3)nc2)cc1)[C@H](CN(Cc1c(F)cc(-c2ccn(C(F)F)n2)cc1F)NC(=O)[C@@H](NC(=O)OC)C(C)(C)C(F)(F)F)OC(=O)CC(C)(C)c1c(CC(=O)NC23CC(C(=O)O)(C2)C3)cc(C)cc1OP(=O)(O)O)C(C)(C)C(F)(F)F [Example 38]
- [Compound] [1]: 1920.9 nM
- EC50 [2]: 305 nM
- solubility at 2 h [3]: 3500 µg/mL (≈ 2200 µM)
- half-life at 2 μM [4]: 6.52 h
- half-life at 2 μM [5]: 7.82 h
- half-life at 2 μM [6]: 5.16 h

Compound: COC(=O)N[C@H](C(=O)N[C@@H](Cc1ccc(C#Cc2cnc(N3CC4CCC(C3)N4C3COC3)nc2)cc1)[C@H](CN(Cc1c(F)cc(-c2ccn(C(F)F)n2)cc1F)NC(=O)[C@@H](NC(=O)OC)C(C)(C)C(F)(F)F)OC(=O)CC(C)(C)c1c(CC(=O)N[C@@H](Cc2ccc(C(=O)O)cc2)C(=O)O)cc(C)cc1OP(=O)(O)O)C(C)(C)C(F)(F)F [Example 45]
- [Compound] [1]: 1787.4 nM
- EC50 [2]: 209 nM
- solubility at 2 h [3]: 4300 µg/mL (≈ 2570 µM)
- half-life at 2 μM [4]: 0.993 h
- half-life at 2 μM [5]: 6.23 h
- half-life at 2 μM [6]: 4.74 h

Compound: COC(=O)N[C@H](C(=O)N[C@@H](Cc1ccc(C#Cc2cnc(N3CC4CCC(C3)N4C3COC3)nc2)cc1)[C@H](CN(Cc1c(F)cc(-c2ccn(C(F)F)n2)cc1F)NC(=O)[C@@H](NC(=O)OC)C(C)(C)C(F)(F)F)OC(=O)CC(C)(C)c1c(CC(=O)NCc2ccc(C(=O)O)cc2)cc(C)cc1OP(=O)(O)O)C(C)(C)C(F)(F)F [Example 49]
- [Compound] [1]: 2175 nM
- EC50 [2]: 224 nM
- solubility at 2 h [3]: 1220 µg/mL (≈ 754 µM)
- half-life at 2 μM [4]: 2.59 h
- half-life at 2 μM [5]: 5.5 h
- half-life at 2 μM [6]: 5.66 h

Compound: COC(=O)N[C@H](C(=O)N[C@@H](Cc1ccc(C#Cc2cnc(N3CC4CCC(C3)N4C3COC3)nc2)cc1)[C@H](CN(Cc1c(F)cc(-c2ccn(C(F)F)n2)cc1F)NC(=O)[C@@H](NC(=O)OC)C(C)(C)C(F)(F)F)OC(=O)CC(C)(C)c1c(CC(=O)NCc2ccc(C#N)cc2)cc(C)cc1OP(=O)(O)O)C(C)(C)C(F)(F)F [Example 51, (5S,10S,11S,14S)-8-(4-(1-(difluoromethyl)-1H-pyrazol-3-yl)-2,6-difluorobenzyl)-11-(4-((2-(8-(oxetan-3-yl)-3,8-diazabicyclo[3.2.1]octan-3-yl)pyrimidin-5-yl)ethynyl)benzyl)-3,6,13,16-tetraoxo-5,14-bis(1,1,1-trifluoro-2-methylpropan-2-yl)-2,17-dioxa-4,7,8,12,15-pentaazaoctadecan-10-yl 3-(2-(2-((4-cyanobenzyl)amino)-2-oxoethyl)-4-methyl-6-(phosphonooxy)phenyl)-3-methylbutanoate]
- [Compound] [1]: 2331.5 nM
- EC50 [2]: 636 nM
- solubility at 2 h [3]: < 1000 µg/mL
- half-life at 2 μM [4]: 8.29 h
- half-life at 2 μM [5]: 7.98 h
- half-life at 2 μM [6]: 6.71 h

Compound: COC(=O)N[C@H](C(=O)N[C@@H](Cc1ccc(C#Cc2cnc(N3CC4CCC(C3)N4C3COC3)nc2)cc1)[C@H](CN(Cc1c(F)cc(-c2ccn(C(F)F)n2)cc1F)NC(=O)[C@@H](NC(=O)OC)C(C)(C)C(F)(F)F)OC(=O)CC(C)(C)c1c(CC(=O)Nc2ccc(/C=C/C(=O)O)cc2)cc(C)cc1OP(=O)(O)O)C(C)(C)C(F)(F)F [Example 52]
- [Compound] [1]: 2131.6 nM
- EC50 [2]: 67.2 nM
- solubility at 2 h [3]: < 1000 µg/mL
- half-life at 2 μM [4]: 2.59 h
- half-life at 2 μM [5]: 5.07 h
- half-life at 2 μM [6]: 5.92 h

Compound: COC(=O)N[C@H](C(=O)N[C@@H](Cc1ccc(C#Cc2cnc(N3CC4CCC(C3)N4C3COC3)nc2)cc1)[C@H](CN(Cc1c(F)cc(-c2ccn(C(F)F)n2)cc1F)NC(=O)[C@@H](NC(=O)OC)C(C)(C)C(F)(F)F)OC(=O)CC(C)(C)c1c(CC(=O)NCc2cccc(C(=O)O)c2)cc(C)cc1OP(=O)(O)O)C(C)(C)C(F)(F)F [Example 53]
- [Compound] [1]: 2028.9 nM
- EC50 [2]: 113 nM
- solubility at 2 h [3]: < 1000 µg/mL
- half-life at 2 μM [4]: 2.41 h
- half-life at 2 μM [5]: 3.4 h
- half-life at 2 μM [6]: 9.76 h

Compound: COC(=O)N[C@H](C(=O)N[C@@H](Cc1ccc(C#Cc2cnc(N3CC4CCC(C3)N4C3COC3)nc2)cc1)[C@H](CN(Cc1c(F)cc(-c2ccn(C(F)F)n2)cc1F)NC(=O)[C@@H](NC(=O)OC)C(C)(C)C(F)(F)F)OC(=O)CC(C)(C)c1c(CC(=O)N[C@@H](CCC(=O)O)C(=O)O)cc(C)cc1OP(=O)(O)O)C(C)(C)C(F)(F)F [Example 66]
- [Compound] [1]: 1908 nM
- biALP Intermediate A or [Amprenavir] (% of total) [1]: 9.4 % of total
- [Intermediate A] or [Amprenavir] ([1]; parent formed): 197.1 nM
- EC50 [2]: 164 nM
- solubility at 2 h [3]: 3890 µg/mL (≈ 2410 µM)
- Dog GI S9 [Intermediate A] ([4]; 2 μM, TRIS pH 7.4): 965.9 nM
- Dog GI S9 [Intermediate A] % ([4]; 2 μM, TRIS pH 7.4): 68.6%
- half-life at 2 μM [4]: 0.912 h
- Human GI S9 [Intermediate A] ([5]; 2 μM, TRIS pH 7.4): 367.6 nM
- Human GI S9 [Intermediate A] % ([5]; 2 μM, TRIS pH 7.4): 26%
- half-life at 2 μM [5]: 3.19 h
- half-life at 2 μM [6]: 4.86 h

Compound: COC(=O)N[C@H](C(=O)N[C@@H](Cc1ccc(C#Cc2cnc(N3CC4CCC(C3)N4C3COC3)nc2)cc1)[C@H](CN(Cc1c(F)cc(-c2ccn(C(F)F)n2)cc1F)NC(=O)[C@@H](NC(=O)OC)C(C)(C)C(F)(F)F)OC(=O)CC(C)(C)c1c(CC(=O)NCC(=O)O)cc(C)cc1OP(=O)(O)O)C(C)(C)C(F)(F)F [Example 74]
- [Compound] [1]: 2044.2 nM
- EC50 [2]: 194 nM
- solubility at 2 h [3]: 3340 µg/mL (≈ 2160 µM)
- half-life at 2 μM [4]: 1.03 h
- half-life at 2 μM [5]: 3.93 h
- half-life at 2 μM [6]: 11.5 h

Compound: COC(=O)N[C@H](C(=O)N[C@@H](Cc1ccc(C#Cc2cnc(N3CC4CCC(C3)N4C3COC3)nc2)cc1)[C@H](CN(Cc1c(F)cc(-c2ccn(C(F)F)n2)cc1F)NC(=O)[C@@H](NC(=O)OC)C(C)(C)C(F)(F)F)OC(=O)CC(C)(C)c1c(CC(=O)N2CC[C@H](C(=O)O)C2)cc(C)cc1OP(=O)(O)O)C(C)(C)C(F)(F)F [Example 76]
- [Compound] [1]: 1777 nM
- EC50 [2]: 333 nM
- solubility at 2 h [3]: 2230 µg/mL (≈ 1410 µM)
- half-life at 2 μM [4]: 4.41 h
- half-life at 2 μM [5]: 6.16 h
- half-life at 2 μM [6]: 4.89 h

Compound: COC(=O)N[C@H](C(=O)N[C@@H](Cc1ccc(C#Cc2cnc(N3CC4CCC(C3)N4C3COC3)nc2)cc1)[C@H](CN(Cc1c(F)cc(-c2ccn(C(F)F)n2)cc1F)NC(=O)[C@@H](NC(=O)OC)C(C)(C)C(F)(F)F)OC(=O)CC(C)(C)c1c(CC(=O)NCP(=O)(O)O)cc(C)cc1OP(=O)(O)O)C(C)(C)C(F)(F)F [Example 104]
- [Compound] [1]: 1622.8 nM
- EC50 [2]: 17.6 nM
- solubility at 2 h [3]: 2730 µg/mL (≈ 1730 µM)
- half-life at 2 μM [4]: 0.15 h
- half-life at 2 μM [5]: 2.1 h
- half-life at 2 μM [6]: 4.75 h

Compound: COC(=O)N[C@H](C(=O)N[C@@H](Cc1ccc(C#Cc2cnc(N3CC4CCC(C3)N4C3COC3)nc2)cc1)[C@H](CN(Cc1c(F)cc(-c2ccn(C(F)F)n2)cc1F)NC(=O)[C@@H](NC(=O)OC)C(C)(C)C(F)(F)F)OC(=O)CC(C)(C)c1c(CC(=O)Nc2ccc(OC)c(S(=O)(=O)O)c2)cc(C)cc1OP(=O)(O)O)C(C)(C)C(F)(F)F [Example 107]
- [Compound] [1]: 1468.1 nM
- EC50 [2]: 317 nM
- solubility at 2 h [3]: 3440 µg/mL (≈ 2060 µM)
- half-life at 2 μM [4]: 2.21 h
- half-life at 2 μM [5]: 4.11 h
- half-life at 2 μM [6]: 6.36 h

Compound: COC(=O)N[C@H](C(=O)N[C@@H](Cc1ccc(C#Cc2cnc(N3CC4CCC(C3)N4C3COC3)nc2)cc1)[C@H](CN(Cc1c(F)cc(-c2ccn(C(F)F)n2)cc1F)NC(=O)[C@@H](NC(=O)OC)C(C)(C)C(F)(F)F)OC(=O)CC(C)(C)c1c(CC(=O)N2CC[C@@H](C(=O)O)C2)cc(C)cc1OP(=O)(O)O)C(C)(C)C(F)(F)F [Example 112]
- [Compound] [1]: 1708.7 nM
- EC50 [2]: 224 nM
- solubility at 2 h [3]: 3790 µg/mL (≈ 2400 µM)
- half-life at 2 μM [4]: 6.05 h
- half-life at 2 μM [5]: 9.55 h
- half-life at 2 μM [6]: 6.53 h
